In patent publication US9271978B2 (Zenith Epigenetics Corp., priority 2012, dated 2016):

Assays:
[1] = system: ApoA-I mRNA; experiment: Up-regulation of hApoA-1 mRNA transcription in Huh7 cells; assay type: cell-based, human; design: key: Active: Compounds with an EC170 value less than 30 μM were deemed to be active; conditions: 48 h treatment, ApoA-I mRNA by real-time PCR, Active = EC170 less than 30 μM
How it was run: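 Huh7 cells treated with compound for 48 h. ApoA-I mRNA was then quantified in captured mRNA by one-step real-time RT-PCR. Fold induction calculated from Ct values relative to the matching DMSO control; EC170 is the concentration for 170% of control expression.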

[2] = system: hMCP-1 mRNA; experiment: Inhibition of hMCP-1 mRNA transcription in human peripheral blood mononuclear cells; assay type: cell-based; design: key: Active: Compounds with an IC50 value less than 30 μM were deemed to be active.; Not Active: Compounds with an IC50 value less than 30 μM were deemed to be active; conditions: 3 h
Method: In this example, hMCP-1 mRNA in human peripheral blood mononuclear cells was quantitated to measure the transcriptional inhibition of hMCP-1 when treated with a compound of the present disclosure.
Human Peripheral Blood Mononuclear Cells were plated (1.0×10^5 cells per well) in a 96-well plate in 45 μL RPMI-1640 containing 10% FBS and penicillin/streptomycin. The cells were treated with the test compound (45 μL at 2× concentration), and then the cells were incubated at 37° C. for 3 h before the cells were harvested. At time of harvest, cells were transferred to V-bottom plates and centrifuged (800 rpm, 5 min). Spent media was removed and cell lysis solution (70 μL) was added the cells in each well and incubated for 5-10 min at room temperature, to allow for complete cell lysis and detachment. mRNA was then prepared using the “mRNA Catcher PLUS plate” (Invitrogen), according to the protocol supplied. After the last wash, as much wash buffer as possible was aspirated without allowing the wells to dry. Elution buffer (E3, 70 μL) was then added to each well. mRNA was then eluted by incubating the mRNA Catcher PLUS plate with Elution Buffer for 5 min at 68° C. and then immediately placing the plate on ice.
(§1) The eluted mRNA isolated was then used in a one-step quantitative real-time PCR reaction, using components of the Ultra Sense Kit together with Applied Biosystems primer-probe mixes. Real-time PCR data was analyzed, normalizing the Ct values for hMCP-1 to an internal control, prior to determining the fold induction of each unknown sample, relative to the control.

[3] = system: hIL-17 mRNA; experiment: Inhibition of hIL-17 mRNA transcription in human peripheral blood mononuclear cells; assay type: cell-based; design: key: Active: Compounds with an IC50 value less than 30 μM were deemed to be active.; Not Active: Compounds with an IC50 value less than 30 μM were deemed to be active; conditions: OKT3 antibody stimulation
Method: In this example, hIL-17 mRNA in human peripheral blood mononuclear cells was quantitated to measure the transcriptional inhibition of hIL-17 when treated with a compound of the invention.
Human peripheral blood mononuclear cells were plated (2.0×10^5 cells per well) in a 96-well plate in 45 μL OpTimizer T Cell expansion media containing 20 ng/ml IL-2 and penicillin/streptomycin. The cells were treated with the test compound (45 μL. at 2× concentration), and then the cells were incubated at 37° C. for 1 h before addition of 10× stock OKT3 antibody at 10 ug/ml in media. Cells were incubated at 37° C. for 3 h before the cells were harvested. At time of harvest, cells were centrifuged (800 rpm, 5 min). Spent media was removed and cell lysis solution (70 μL) was added the cells in each well and incubated for 5-10 min at room temperature, to allow for complete cell lysis and detachment. mRNA was then prepared using the “mRNA Catcher PLUS plate” (Invitrogen), according to the protocol supplied. After the last wash, as much wash buffer as possible was aspirated without allowing the wells to dry. Elution buffer (E3, 70 μL) was then added to each well. mRNA was then eluted by incubating the mRNA Catcher PLUS plate with Elution Buffer for 5 min at 68° C. and then immediately placing the plate on ice.
as §1, with “hIL-17” for “hMCP-1”

Structure (SMILES)	ApoA-1 activity (EC170 <30 μM) [1]	MCP-1 activity (IC50 < 30 μM) [2]	IL-17 activity (IC50 < 30 μM) [3]
Cc1noc(C)c1-c1ccc(=O)n([C@H](C)c2ccccc2)c1 [Example 134, (R)-5-(3,5-Dimethylisoxazol-4-yl)-1-(1-phenylethyl)pyridin-2(1H)-one]	Active	Active	
Cc1noc(C)c1-c1cc(N)c(=O)n(Cc2ccc(F)cc2)c1 [Example 180, 3-amino-5-(3,5-dimethylisoxazol-4-yl)-1-(4-fluorobenzyl)pyridin-2(1H)-one]	Active		Active
Cc1noc(C)c1-c1ccc(=O)n(Cc2ccccc2)c1 [Example 56, 1-Benzyl-5-(3,5-dimethylisoxazol-4-yl)pyridin-2(1H)-one]	Active	Active	
Cc1noc(C)c1-c1cc(N)c(=O)n(Cc2ccsc2)c1 [Example 219, 3-amino-5-(3,5-dimethylisoxazol-4-yl)-1-(thiophen-3-ylmethyl)pyridin-2(1H)-one]	Active		Active
Cc1noc(C)c1-c1cc(N)c(=O)n(Cc2ccc(Br)cc2)c1 [Example 241, 3-Amino-1-(4-bromobenzyl)-5-(3,5-dimethylisoxazol-4-yl)pyridin-2(1H)-one]	Active		Active
Cc1noc(C)c1-c1ccc(=O)n(Cc2ccc(Cl)cc2)c1 [Example 128, 1-(4-Chlorobenzyl)-5-(3,5-dimethylisoxazol-4-yl)pyridin-2(1H)-one]	Active	Active	Active
Cc1noc(C)c1-c1cc(N)c(=O)n(Cc2ccccc2)c1 [Example 73, 3-Amino-1-benzyl-5-(3,5-dimethylisoxazol-4-yl)pyridin-2(1H)-one]	Active	Active	
